Reference: publication PMC6143625, “A high throughput screen for next-generation leads targeting malaria parasite transmission” (Nature Communications, 2018)
Where two headings read alike, the source gives them in different places.

Key:
[1] = system: P. falciparum stage V male gametocytes (male gamete formation); test: P. falciparum dual gamete formation assay (Pf DGFA), male readout (exflagellation), 48 h carry-over format; format: cell-based, Plasmodium falciparum NF54; conditions: for IC50 / inhibition at 2 µM: Plasmodium falciparum; for activity in the Pf DGFA: freshly resynthesized compound; for inhibition at 2 µM: primary screen, single replicate
[2] = biological target: T1, recombinant luciferase (Photinus pyralis) (Photinus pyralis, UniProt P08659); test: Recombinant luciferase inhibition assay; format: biochemical
T1 construct: purchased Promega E1701
T1 sequence (P08659 whole entry): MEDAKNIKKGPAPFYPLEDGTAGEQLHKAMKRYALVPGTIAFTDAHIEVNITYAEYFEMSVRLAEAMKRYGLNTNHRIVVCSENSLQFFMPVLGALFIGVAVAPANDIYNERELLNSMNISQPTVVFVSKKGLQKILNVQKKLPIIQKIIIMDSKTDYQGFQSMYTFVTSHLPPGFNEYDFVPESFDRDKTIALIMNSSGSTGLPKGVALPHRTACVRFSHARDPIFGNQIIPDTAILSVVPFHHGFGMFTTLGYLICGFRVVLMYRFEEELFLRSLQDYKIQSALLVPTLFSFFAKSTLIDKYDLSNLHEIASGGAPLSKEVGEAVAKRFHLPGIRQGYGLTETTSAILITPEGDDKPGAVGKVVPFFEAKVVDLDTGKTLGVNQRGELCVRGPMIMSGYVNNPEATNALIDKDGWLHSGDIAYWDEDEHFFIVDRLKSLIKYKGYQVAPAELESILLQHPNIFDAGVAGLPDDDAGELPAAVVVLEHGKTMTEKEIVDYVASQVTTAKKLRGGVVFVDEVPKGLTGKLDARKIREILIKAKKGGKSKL
Procedure: A counter-screen to the P. berghei liver stage assay was run against recombinant luciferase (Photinus pyralis) to measure the intrinsic bioluminescence inhibition from select compounds. Briefly, compounds were plated in 12-point serial dose response (50–2.82 × 10^−4 µM) in 1536-well opaque-bottom plates (789173-F, Greiner Bio-One). A 20 pM QuantiLum® Recombinant Luciferase (E1701, Promega) containing solution was made in screening media (DMEM, 11965–092, Invitrogen; 5% FBS, 35–011-CV, Corning; 5x Pen Strep Glutamine, 10378–016, Invitrogen), and 8 µl were added to each well. After 1 h incubation at room temperature, 2 µl of Bright-Glo™ (E2610, Promega) were dispensed per well, and bioluminescence was immediately measured using the EnVision microplate reader (PerkinElmer). DMSO (0.5%) and Luciferase Inhibitor-2 (9.8 µM) (119114, MilliporeSigma) served as negative and positive controls, respectively.

[3] = system: P. berghei strain CTRPpGFP early mosquito stage (ookinete) development; test: P. berghei ookinete development assay (Pb ODA); format: cell-based, Plasmodium berghei; conditions: for IC50: Plasmodium berghei, 24h incubation
Procedure: All mouse procedures were performed in accordance with the UK Animals (Scientific Procedures) Act (PPL 70/7185) and approved by the Imperial College Animal Welfare and Ethical Review Body (AWERB). The ability of test compounds to inhibit P. berghei early mosquito stage development was tested in the Ookinete Development Assay[37] with a few exceptions. Anaesthetised 6- to 8-week-old female Tucks Ordinary (TO) mice infected with P. berghei strain CTRPpGFP[38] were rapidly exsanguinated by cardiac puncture and 500 µl of blood diluted in 25 ml of ookinete medium supplemented with 20% foetal bovine serum. Immediately the blood/medium mixture was dispensed by multichannel pipette into 384 well plates containing pre-plated test compounds. 10 µM cycloheximide and DMSO were used as the positive and negative controls, respectively. Plates were stored in the dark in a humidified incubator at 18 °C for 24 h. Ookinete production was imaged by fluorescence microscopy of GFP expression under the ookinete-specific CTRP promoter using a Nikon Ti-E widefield microscope and ×10 objective. Ookinete production was quantified using ICY and percentage inhibition calculated as above with reference to positive and negative controls.

[4] = system: Stage IV–V 3D7 gametocytes; test: Gametocytocidal ATP-based bioluminescence assay (GC-ATP); format: cell-based, Plasmodium falciparum 3D7; conditions: for IC50: Plasmodium falciparum, 3D7, 48h incubation, read-out: Pf late stage gametocyte (ATP depletion) IC50
Procedure: The metabolic viability of late stage gametocytes was determined using a gametocyte ATP bioluminescence assay. Stage IV–V 3D7 gametocyte cultures were double-purified by density gradient sedimentation over NycoPrep® followed by magnetic isolation. Then, parasites (50 µl per well containing 12,500 gametocytes) were added to compound pre-dispensed 384-well plates (781091, Greiner) and incubated at 37 °C for 48 h under 5% CO2/3% O2/92% N2. BacTiter-Glo® kit (G8231, Promega) was used to determine the ATP levels of viable parasites according to manufacturer’s instructions. After reagent addition (50 µl per well), luminescence of the plates was measured using a microplate reader (HTS counter Victor, Wallac).

[5] = BPCA vs GHCDL stock of DDD599, adjusted for correct molecular weight, read-out: Pf DGFA male IC50
[6] = SAR, Fig. 6 and Fig. 7, read-out: Male IC50
[7] = 1h incubation, read-out: Recombinant luciferase assay IC50
[8] = 48 h, dose response retest of primary hits, 48 h incubation, read-out: Male IC50
[9] = 48h preincubation/carry-over, read-out: Pf DGFA Male IC50

| Compound | IC50 [2, 7] | IC50 [3] | IC50 [4] | IC50 [1, 8] | IC50 [1, 9] | inhibition at 2 µM ([1]; 48 h incubation) | other results |
| --- | --- | --- | --- | --- | --- | --- | --- |
| O=C(CCl)Nc1ccc(Br)cc1 [BPCA, N-(4-bromophenyl)-2-chloroacetamide] |  |  |  |  |  |  | IC50 [1, 5]: 1.46 µM; IC50 [1, 6]: 1.42 µM; Selectivity ([1]; parasite selectivity compared to Tox50 in HepG2 cells): 17 |
| CC(=O)c1c(C)nn(CC(=O)Nc2ccc(Br)cc2)c1C [DDD01027599] | > 50 µM | > 12.5 µM | 1.61 µM |  |  |  | IC50 [1, 5]: 1.38 µM; IC50 ([1]; compound resynthesised at GSK, read-out: IC50 against male gametocytes): > 50 µM; activity in the Pf DGFA [1]: inactive |
| O=S(=O)(NCC1(O)CCOc2ccccc21)c1ccccc1F (stereo not shown) [DDD01028073] | > 50 µM | 0.3 µM | > 10 µM | 0.29 µM | 0.24 µM | 95% | IC50 [1, 6]: 0.34 µM |
| Cc1ccc(S(=O)(=O)NCC2(O)CCOc3ccccc32)s1 (stereo not shown) [DDD01028074] | > 50 µM | 0.29 µM | > 10 µM | 0.22 µM | 0.49 µM | 101% | IC50 [1, 6]: 0.61 µM |
| O=S(=O)(NCC1(O)CCOc2ccccc21)c1ccc(Cl)s1 (stereo not shown) [DDD01028075] | > 50 µM | 0.34 µM | > 10 µM | 0.45 µM | 1.48 µM | 53.1% | IC50 [1, 6]: 0.24 µM |
| O=S(=O)(NCC1(O)CCOc2ccccc21)c1ccccc1Br (stereo not shown) [DDD01028076] | > 50 µM | 0.22 µM | > 10 µM | 0.16 µM | 0.72 µM | 98.3% | IC50 [1, 6]: 0.53 µM |
| COc1cccc(-n2ccc3nc(N4CCCC4)ncc3c2=O)c1 [DDD01034957] | 6.7 µM | > 12.5 µM | > 10 µM |  | > 12.5 µM |  |  |
| O=S(=O)(NCC1(O)CCOc2ccccc21)c1cccs1 (stereo not shown) [DDD01035879] | > 50 µM | 0.29 µM | > 10 µM | 1.1 µM | 1.65 µM | 83.8% | IC50 [1, 6]: 0.28 µM |
| O=S(=O)(NCC1(O)CCOc2ccccc21)c1ccc(Br)s1 (stereo not shown) [DDD01035881] | > 50 µM | 0.11 µM | > 10 µM | 0.54 µM | 0.7 µM | 102% | IC50 [1, 6]: 0.19 µM |
| Cc1cccc(NC(=O)c2cccc(OCc3nnnn3C)c2)n1 [DDD01038630] | > 50 µM | > 12.5 µM | > 10 µM |  | > 12.5 µM |  |  |
| CC(c1ccco1)N(C(=O)CNc1ccc(C#N)cc1)C1CC1 (stereo not shown) [DDD01062645] | > 50 µM | > 12.5 µM | > 10 µM | 0.43 µM | 2.07 µM | 96% | activity in P. berghei ookinete development assay ([3]; profiling): inactive |
| Cc1ccc(CN(c2cc(C)nc3nc(C(F)(F)F)nn23)C2CC2)cc1 [DDD01063654] | > 50 µM | > 12.5 µM | > 10 µM |  | > 12.5 µM |  |  |
| Cc1cc(C)c(CNCC(O)c2ccc(F)c(F)c2)c(C)c1.Cl (stereo not shown) [DDD01065539] |  | > 12.5 µM | > 10 µM |  | > 12.5 µM |  | IC50 [2]: > 50 µM |
| CC(NCC1CCN(CCO)CC1)c1ccc(OC(F)(F)F)cc1 (stereo not shown) [DDD01073716] | > 50 µM | > 25 µM | > 10 µM | 7.09 µM | 1.43 µM | 43.9% |  |
| CN(Cc1cccc(F)c1)C(=O)CS(=O)(=O)Cc1c(Cl)cccc1Cl [DDD01077188] | > 50 µM | > 12.5 µM | > 10 µM |  | > 12.5 µM |  |  |
| CN1CCC(NCC(O)c2cccc(OCc3ccccc3)c2)CC1 (stereo not shown) [DDD01079164] | > 50 µM | > 25 µM | 6.29 µM | 5.75 µM | 0.92 µM | 45.7% |  |
| CNc1cc(C)nc(NC2CCCN(C3Cc4ccccc4C3)C2)n1 (stereo not shown) [DDD01243506] | > 50 µM | > 12.5 µM | > 10 µM |  | > 12.5 µM |  | IC50 ([2]; read-out: Recombinant luciferase IC50): ≥ 50 µM |
| OC1(CN2CCC(Oc3cccc(C(F)(F)F)c3)CC2)CCNC1 (stereo not shown) [DDD01245291] | > 50 µM | > 25 µM | > 10 µM | 3.05 µM | 1.11 µM | 48.3% |  |
| CC(c1cccs1)N(C)Cc1cnc(-c2ccccn2)nc1 (stereo not shown) [DDD01246628] | 4.28 µM | > 25 µM | 2.31 µM | 2.54 µM | 1.17 µM | 67.8% |  |
| CC(C)CN1CCn2nc(CNc3ncnc4[nH]ccc34)cc2C1 [DDD01249504] | > 50 µM | > 25 µM | > 10 µM | 2.27 µM | 1.66 µM | 52.1% | IC50 ([1]; 240 h, resynthesized, aged 10 days at room temperature in the light, read-out: IC50 in Pf DGFA after aging): 0.381 µM; activity in the Pf DGFA [1]: inactive; activity in Pf DGFA after aging ([1]; resynthesized, incubated in the dark at 37 °C): inactive; activity in Pf DGFA ([1]; resynthesized, untreated compound): inactive |
| CCCn1nccc1C(=O)N1CCN(C2CCc3ccccc3C2)CC1 (stereo not shown) [DDD01251134] | > 50 µM | > 12.5 µM | > 10 µM |  | > 12.5 µM |  |  |
| Cc1nn(C)c(Oc2ccc(Cl)cc2)c1CN1CCC(CN)C1 (stereo not shown) [DDD01254274] | > 50 µM | > 25 µM | 6.86 µM | 4.08 µM | 2.25 µM | 53.1% |  |
| CCc1ccc(C2c3nc[nH]c3CCN2Cc2nccn2CC)nc1 (stereo not shown) [DDD01254473] | > 50 µM | > 12.5 µM | 0.53 µM | > 10 µM | 3.96 µM | < 30% | activity in the GC-ATP assay ([4]; profiling): submicromolar |
| CCOc1ccc2ccccc2c1CNCC1CCNCC1.Cl.Cl [DDD01255740] | > 50 µM | > 12.5 µM | > 10 µM | 4.4 µM | 0.41 µM | 35.6% |  |
| Cc1ccc(-c2cc(C(=O)NCCC3=CCCCC3)[nH]n2)o1 [DDD01255968] | 17.9 µM | > 12.5 µM | > 10 µM | 1.55 µM | 1.82 µM | 37.5% | IC50 ([1]; resynthesized, incubated at room temperature, read-out: IC50 in Pf DGFA after aging): 15.9 µM; IC50 ([1]; resynthesized, prolonged incubation at 37 °C, read-out: IC50 in Pf DGFA after aging): 5.85 µM; activity in the Pf DGFA [1]: inactive |
| CCn1ncc(Br)c1CN(C)S(=O)(=O)c1ccc(C)cc1 [DDD01259521] | > 50 µM | > 12.5 µM | > 10 µM |  | > 12.5 µM |  |  |
| c1cnnc(N2CCCC2CNc2ncnc3sccc23)c1 (stereo not shown) [DDD01299704] | > 50 µM | > 12.5 µM | > 10 µM |  | > 12.5 µM |  |  |
